Reference: paper PMC9927415, “Tyrosine Kinase Inhibitors Display Potent Activity against Cryptosporidium parvum” (Microbiology Spectrum, 2022)
Like-named read-outs stand apart in the source and are kept apart here.

Key:
[1] = system: Cryptosporidium parvum; assay: In vitro C. parvum growth inhibition assay (Nluc reporter strain in HCT-8 cells); assay type: cell-based; settings: 48 h
Description: Host intestinal epithelial adenocarcinoma (HCT-8) cells were seeded into 96-well plates and grown to 70% confluence in RPMI medium supplemented with L-glutamine, 10% fetal bovine serum (FBS), 0.1 U/mL penicillin, 0.1 μg/mL streptomycin, 0.25 μg/mL amphotericin B and 1 mM sodium pyruvate. The host cell medium was aspirated and replaced with Cryptosporidium infection media (RPMI containing 2% FBS, 0.1 U/mL penicillin, 0.1 μg/mL streptomycin and 0.25 μg/mL amphotericin B) media prior to infection. The HCT-8 cells were infected with bleached and washed Nluc expressing C. parvum oocysts (2,000 oocysts per well) to which 10 μM compounds were added and plates were incubated for 48 h at 37°C, 5% CO2 and luminescence was measured using the protocol described previously ([14], [58]). […] Negative (no drug) and positive control (10 μM nitazoxanide) wells (three replicates each) were also set-up in the same plate. After the incubation, medium was removed and 100 μL of NanoGlo lysis buffer (Promega) was added to the wells followed by incubation for 15 min at 37°C, 5% CO2. The lysate was suspended by pipetting and 100 μL of NanoGlo lysis buffer containing 1:50 of NanoGlo substrate (Promega) was added to each well. […] For the dose response assay, compounds were tested in triplicate wells in two independent experiments and percent luminescence of no drug was calculated.
EC50 values were calculated using a nonlinear regression (curve fit of log-dose versus response) in GraphPad Prism version 8.

[2] = Host cell cytotoxicity assay (CellTiter-Glo); settings: human
Description: HepG2 cells were grown in Eagle’s Minimum Essential Medium (MEM) containing 10% FBS, 1% nonessential amino acids (NEAA) and 1% penicillin/streptomycin to >50% confluence prior to harvesting. Cells were suspended in media and 3000 cells per well were added onto 384-well clear bottom plates. Prior to addition of the cell suspension, the screening compounds (250 nl) were predispensed into plates using a liquid handler. Plates were incubated for 48 h at 37°C, 5% CO2. After 48 h of incubation, plates were equilibrated at room temperature for 30 min before luminescence signal was measured using CellTiter-Glo Reagent. Plates were kept at room temperature for 10 min to stabilize the signal and then read using a ViewLux luminescence reader. The HepG2 CC50 (from the host cell cytotoxicity assays) and C. parvum mean EC50 (from parasite growth inhibition assays) values were used to calculate selectivity index.

`CC(=O)Oc1ccccc1C(=O)Nc1ncc([N+](=O)[O-])s1` [Nitazoxanide, nitazoxanide, reference compound] gave an inhibition at 10 µM ([1]; 10 μM, read-out: inhibition of C. parvum growth) of over 90% and an inhibition at 10 µM ([1]; primary screen, 10 μM compound, three technical replicates, read-out: Mean percent inhibition of C. parvum growth) of 94.5%.

`Cc1ccc(O)cc1Nc1ccnc2ccc(S(C)(=O)=O)cc12` [Compound 5] showed a CC50 at 48 h [2] of 15.8 µM.
